The target of one experiment is Carbonic anhydrase 12 (Homo sapiens, UniProt O43570). The experiment in a line: Inhibition of human recombinant carbonic anhydrase 12 assessed as inhibition constant incubated for 10 mins by phenol red dye based stopped-flow CO2 hydration assay.
The next experiment concerns the target Carbonic anhydrase 2 (Homo sapiens, UniProt P00918). The experiment in a line: Inhibition of human recombinant carbonic anhydrase 2 assessed as inhibition constant incubated for 10 mins by phenol red dye based stopped-flow CO2 hydration assay.
In a further experiment the target is Carbonic anhydrase 1 (Homo sapiens, UniProt P00915). Description: Inhibition of human recombinant carbonic anhydrase 1 assessed as inhibition constant incubated for 10 mins by phenol red dye based stopped-flow CO2 hydration assay.
The target in the next experiment is Carbonic anhydrase 9 (Homo sapiens, UniProt Q16790). The experiment in a line: Inhibition of human recombinant carbonic anhydrase 9 assessed as inhibition constant incubated for 10 mins by phenol red dye based stopped-flow CO2 hydration assay.
The target of a further experiment is Carbonic anhydrase 4 (Homo sapiens, UniProt P22748). Description: Inhibition of human recombinant carbonic anhydrase 4 assessed as inhibition constant incubated for 10 mins by phenol red dye based stopped-flow CO2 hydration assay.
Carbonic anhydrase 4, sequence (P22748 whole entry): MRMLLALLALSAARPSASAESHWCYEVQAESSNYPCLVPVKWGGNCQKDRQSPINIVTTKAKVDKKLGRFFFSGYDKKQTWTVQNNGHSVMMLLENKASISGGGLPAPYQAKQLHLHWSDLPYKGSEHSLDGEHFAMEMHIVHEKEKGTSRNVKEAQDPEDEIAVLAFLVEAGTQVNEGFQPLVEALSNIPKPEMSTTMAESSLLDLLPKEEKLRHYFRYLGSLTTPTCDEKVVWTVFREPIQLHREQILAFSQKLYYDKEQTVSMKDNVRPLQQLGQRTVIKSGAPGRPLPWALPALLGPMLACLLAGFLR

Carbonic anhydrase 1, sequence (P00915 whole entry): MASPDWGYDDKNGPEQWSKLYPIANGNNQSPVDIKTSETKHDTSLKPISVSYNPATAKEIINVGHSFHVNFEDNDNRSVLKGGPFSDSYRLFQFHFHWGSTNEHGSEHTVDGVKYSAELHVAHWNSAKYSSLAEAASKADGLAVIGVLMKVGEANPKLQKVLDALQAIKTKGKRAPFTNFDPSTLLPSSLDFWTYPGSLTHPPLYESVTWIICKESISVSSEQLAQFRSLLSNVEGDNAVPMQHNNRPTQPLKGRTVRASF
Carbonic anhydrase 12, sequence (O43570 whole entry): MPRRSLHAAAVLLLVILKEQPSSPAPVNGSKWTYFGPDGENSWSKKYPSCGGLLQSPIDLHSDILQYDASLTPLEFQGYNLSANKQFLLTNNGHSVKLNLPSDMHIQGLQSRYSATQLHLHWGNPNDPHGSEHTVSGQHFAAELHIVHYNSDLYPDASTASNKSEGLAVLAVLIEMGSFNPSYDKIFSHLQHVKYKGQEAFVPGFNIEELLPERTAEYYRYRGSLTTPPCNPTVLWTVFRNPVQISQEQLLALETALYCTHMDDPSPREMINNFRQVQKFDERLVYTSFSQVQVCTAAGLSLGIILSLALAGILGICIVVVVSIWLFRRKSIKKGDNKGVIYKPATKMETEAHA

Consider `COc1ccc2nc(-c3ccc(Cl)cc3Cl)cc(C(=O)Nc3cccc(S(N)(=O)=O)c3)c2c1`, for which the Ki – broadly, a measure of affinity in units of concentration, obtained from inhibition or displacement – at Carbonic anhydrase 12 came out at 64.8 nM; at Carbonic anhydrase 2, 61.7 nM; at Carbonic anhydrase 1, 896 nM; at Carbonic anhydrase 9 it was 93.5 nM.
With `COc1ccc(-c2cc(C(=O)Nc3cccc(S(N)(=O)=O)c3)c3cc(Cl)ccc3n2)cc1OC`, the Ki on Carbonic anhydrase 12 stood at 423 nM; on Carbonic anhydrase 2, 253 nM; on Carbonic anhydrase 1 it was 831 nM; at Carbonic anhydrase 9, 247 nM.
The matching figures for `COc1ccc(-c2cc(C(=O)Nc3cccc(S(N)(=O)=O)c3)c3ccccc3n2)cc1OC`: 76.2 nM, 388 nM, 888 nM and 78.2 nM.
The corresponding values for `COc1ccc2nc(-c3ccccc3OC)cc(C(=O)NCCc3ccc(S(N)(=O)=O)cc3)c2c1` are 851 nM, 382 nM, 902 nM and 67.7 nM.
For `COc1ccc(-c2cc(C(=O)Nc3ccc(S(N)(=O)=O)cc3)c3cc(Cl)ccc3n2)cc1OC`, the Ki at Carbonic anhydrase 12 turned out to be 215 nM; on Carbonic anhydrase 2 it was 305 nM; on Carbonic anhydrase 1, 797 nM; on Carbonic anhydrase 9, 309 nM.
The matching figures for `COc1ccc2nc(-c3ccccc3C)cc(C(=O)Nc3ccc(S(N)(=O)=O)cc3)c2c1`: 46.9 nM, 28.5 nM, 555 nM and 21.4 nM.
Take `NS(=O)(=O)c1ccc(CCNC(=O)c2cc(-c3cccc(Br)c3)nc3ccccc23)cc1`: the Ki at Carbonic anhydrase 12 was determined as 30.9 nM; at Carbonic anhydrase 2 it was 9.6 nM; at Carbonic anhydrase 1, 977 nM; on Carbonic anhydrase 9 it was 39.3 nM.
The corresponding values for `NS(=O)(=O)c1ccc(NC(=O)c2cc(-c3cccc(C(F)(F)F)c3)nc3ccccc23)cc1` are 169 nM, 262 nM, 659 nM and 421 nM.
The corresponding values for `COc1ccc2nc(-c3ccc(Cl)cc3Cl)cc(C(=O)NCCc3ccc(S(N)(=O)=O)cc3)c2c1` are 438 nM, 674 nM, 6340 nM and 73.8 nM.
The matching figures for `NS(=O)(=O)c1cccc(NC(=O)c2cc(-c3cccc(Br)c3)nc3ccccc23)c1`: 341 nM, 156 nM, 854 nM and 91.3 nM.
`NS(=O)(=O)c1ccc(NC(=O)c2cc(-c3ccc4c(c3)OCO4)nc3ccccc23)cc1`: the Ki at Carbonic anhydrase 12 was determined as 72.1 nM; on Carbonic anhydrase 2 it was 7.1 nM; at Carbonic anhydrase 1 it was 256 nM; on Carbonic anhydrase 9, 6.5 nM.
The matching figures for `COc1ccc2nc(-c3ccccc3OC)cc(C(=O)Nc3ccc(S(N)(=O)=O)cc3)c2c1`: 8.8 nM, 44.5 nM, 283 nM and 37.2 nM.
Take `NS(=O)(=O)c1ccc(CCNC(=O)c2cc(-c3ccccc3)nc3ccc(Cl)cc23)cc1`: the Ki on Carbonic anhydrase 12 stood at 6.7 nM; at Carbonic anhydrase 2, 42.9 nM; on Carbonic anhydrase 1, 1890 nM; on Carbonic anhydrase 9, 47.6 nM.
The corresponding values for `COc1ccc2nc(-c3ccc(OC)c(OC)c3)cc(C(=O)NCCc3ccc(S(N)(=O)=O)cc3)c2c1` are 218 nM, 588 nM, 5540 nM and 70.3 nM.
Consider `O=C(/C=C/c1sc(N2CCOCC2)nc1-c1ccc([N+](=O)[O-])cc1)Nc1ccc(Br)cc1`, for which the Ki turned out to be 8.8 nM on Carbonic anhydrase 12, 9.3 nM at Carbonic anhydrase 2 and 54.7 nM at Carbonic anhydrase 9.
With `COc1ccc2nc(-c3ccccc3)cc(C(=O)Nc3ccc(S(N)(=O)=O)cc3)c2c1`, the Ki was found to be 56.7 nM on Carbonic anhydrase 12, 91.3 nM on Carbonic anhydrase 2, 535 nM at Carbonic anhydrase 1 and 35.7 nM on Carbonic anhydrase 9.
For `NS(=O)(=O)c1cc(C(=O)CSc2nc3c(cnc4ccccc43)[nH]2)ccc1Cl`, the results for the Ki at Carbonic anhydrase 12, at Carbonic anhydrase 2 and on Carbonic anhydrase 1 were 0.1 nM, 0.03 nM and 1.3 nM, respectively.
For the molecule `COc1ccc2nc(-c3ccc(OC)c(OC)c3)cc(C(=O)Nc3ccc(S(N)(=O)=O)cc3)c2c1`, the Ki on Carbonic anhydrase 12 was 75.5 nM; at Carbonic anhydrase 2, 26.2 nM; at Carbonic anhydrase 1 it was 416 nM; on Carbonic anhydrase 9 it was 9.1 nM.
The corresponding values for `COc1ccc(-c2cc(C(=O)Nc3ccc(S(N)(=O)=O)cc3)c3ccccc3n2)c(OC)c1` are 261 nM, 598 nM, 5320 nM and 93.2 nM.
The corresponding values for `NS(=O)(=O)c1cccc(NC(=O)c2cc(-c3cccc(C(F)(F)F)c3)nc3ccccc23)c1` are 365 nM, 87.8 nM, 3770 nM and 64.6 nM.
Consider `NS(=O)(=O)c1cccc(NC(=O)c2cc(-c3ccccc3)nc3ccccc23)c1`, for which the Ki was determined as 9.6 nM on Carbonic anhydrase 12, 298 nM at Carbonic anhydrase 2, 966 nM at Carbonic anhydrase 1 and 67.4 nM at Carbonic anhydrase 9.
The matching figures for `NS(=O)(=O)c1cccc(NC(=O)c2cc(-c3ccccc3)nc3ccc(Cl)cc23)c1`: 71.1 nM, 172 nM, 6600 nM and 330 nM.
The matching figures for `NS(=O)(=O)c1ccc(CCNC(=O)c2cc(-c3cccc(C(F)(F)F)c3)nc3ccccc23)cc1`: 6.9 nM, 91.1 nM, 1820 nM and 74.2 nM.
The matching figures for `COc1ccc2nc(-c3ccccc3)cc(C(=O)NCCc3ccc(S(N)(=O)=O)cc3)c2c1`: 391 nM, 487 nM, 933 nM and 75.5 nM.
`NS(=O)(=O)c1cccc(NC(=O)c2cc(-c3ccc4c(c3)OCO4)nc3ccccc23)c1`: the Ki at Carbonic anhydrase 12 worked out at 88.9 nM; on Carbonic anhydrase 2, 478 nM; at Carbonic anhydrase 1, 1460 nM; on Carbonic anhydrase 9, 65.4 nM.
For the molecule `NS(=O)(=O)c1ccc(NC(=O)c2cc(-c3ccccc3)nc3ccccc23)cc1`, the Ki at Carbonic anhydrase 12 worked out at 130 nM; on Carbonic anhydrase 2 it was 54.7 nM; at Carbonic anhydrase 1, 537 nM; at Carbonic anhydrase 9 it was 70.4 nM.
On to `COc1ccc(-c2cc(C(=O)NCCc3ccc(S(N)(=O)=O)cc3)c3cc(Cl)ccc3n2)cc1OC`, for which the Ki at Carbonic anhydrase 12 was 302 nM; on Carbonic anhydrase 2, 187 nM; on Carbonic anhydrase 1, 765 nM; on Carbonic anhydrase 9 it was 91.6 nM.
For `COc1ccc2nc(-c3ccc(OC)c(OC)c3)cc(C(=O)Nc3cccc(S(N)(=O)=O)c3)c2c1`, the Ki on Carbonic anhydrase 12 was found to be 426 nM; at Carbonic anhydrase 2, 97.8 nM; at Carbonic anhydrase 1, 665 nM; at Carbonic anhydrase 9, 51.3 nM.
Take `Cc1ccc(-c2cc(C(=O)Nc3cccc(S(N)(=O)=O)c3)c3cc(Cl)ccc3n2)cc1`: the Ki at Carbonic anhydrase 12 was found to be 757 nM; on Carbonic anhydrase 2, 293 nM; at Carbonic anhydrase 1, 3940 nM; at Carbonic anhydrase 9, 245 nM.
`CCN(C1CC(C)S(=O)(=O)c2sc(S(N)(=O)=O)cc21)S(=O)(=O)c1cccc2cccnc12` (stereo not drawn): the Ki on Carbonic anhydrase 2 is 5 nM; at Carbonic anhydrase 4 it was 10 nM.
In the case of `NS(=O)(=O)c1ccc(CCNC(=O)c2cc(-c3ccc4c(c3)OCO4)nc3ccccc23)cc1`, the Ki on Carbonic anhydrase 12 amounted to 555 nM; on Carbonic anhydrase 2, 18.3 nM; at Carbonic anhydrase 1 it was 3620 nM; at Carbonic anhydrase 9, 22.8 nM.
As to `COc1ccc(-c2cc(C(=O)NCCc3ccc(S(N)(=O)=O)cc3)c3ccccc3n2)cc1OC`, the Ki at Carbonic anhydrase 12 is 88.5 nM; on Carbonic anhydrase 2, 35.2 nM; at Carbonic anhydrase 1 it was 91.8 nM; on Carbonic anhydrase 9, 9.7 nM.
The matching figures for `NS(=O)(=O)c1ccc(CCNC(=O)c2cc(-c3ccccc3)nc3ccc(Br)cc23)cc1`: 758 nM, 867 nM, 6280 nM and 58.8 nM.
As to `NS(=O)(=O)c1ccc(NC(=O)Cn2cc(/C=C/C(=O)c3cccc(C(F)(F)F)c3)c3ccccc32)cc1`, the Ki on Carbonic anhydrase 2 stood at 2.3 nM; on Carbonic anhydrase 9, 31 nM.
On to `NS(=O)(=O)c1ccc(NC(=O)c2cc(-c3cccc(Cl)c3)nc3ccccc23)cc1`, for which the Ki was found to be 72.8 nM on Carbonic anhydrase 12, 141 nM on Carbonic anhydrase 2, 838 nM on Carbonic anhydrase 1 and 97.1 nM at Carbonic anhydrase 9.
Regarding `NS(=O)(=O)c1cccc(NC(=O)c2cc(-c3cccc(Cl)c3)nc3ccc(Cl)cc23)c1`, the Ki at Carbonic anhydrase 12 is 527 nM; at Carbonic anhydrase 2, 257 nM; on Carbonic anhydrase 1, 848 nM; on Carbonic anhydrase 9 it was 349 nM.
